What all share (type): in vivo
Assay [1] deals with Alopecurus myosuroides. As to the kind of experiment: Pre-emergence herbicidal activity against ALOMY. The following applies: Alopecurus myosuroides, 504 h, dosage 80 g/ha, scored visually after about 3 weeks vs untreated controls. From the text:
(§1) 1. Pre-emergence herbicidal action against harmful plants and crop plant compatibility Seeds of monocotyledonous and dicotyledonous weed plants and crop plants are placed in plastic or wood fiber pots and covered with soil. The compounds of the invention, formulated in the form of wettable powders (WP) or as emulsion concentrates (EC), are then applied onto the surface of the covering soil as aqueous suspension or emulsion with addition of 0.5% additive at a water application rate of 600 l/ha (converted). After the treatment, the pots are placed in a greenhouse and kept under good growth conditions for the trial plants. After about 3 weeks, the effect of the preparations is scored visually in comparison with untreated controls as percentages. For example, 100% activity=the plants have died, 0% activity=like control plants. [table]

The test system of assay [2] is Avena fatua. As to the kind of experiment: Pre-emergence herbicidal activity against AVEFA. Conditions: Avena fatua, 504 h, dosage 80 g/ha, scored visually after about 3 weeks vs untreated controls, read-out: Pre-emergence herbicidal activity in % against AVEVA (AVEFA).
Source text: as §1

Assay [3] relates to Echinochloa crus-galli. As to the kind of experiment: Pre-emergence herbicidal activity against ECHCG. Conditions: Echinochloa crus-galli, 504 h, dosage 80 g/ha, scored visually after about 3 weeks vs untreated controls.
Source text: as §1

Assay [4] deals with Lolium rigidum. As to the kind of experiment: Pre-emergence herbicidal activity against LOLRI. Conditions: Lolium rigidum, 504 h, dosage 80 g/ha, scored visually after about 3 weeks vs untreated controls.
Source text: as §1

The subject of assay [5] is Setaria viridis. As to the kind of experiment: Pre-emergence herbicidal activity against SETVI. The following applies: Setaria viridis, 504 h, dosage 80 g/ha, scored visually after about 3 weeks vs untreated controls.
Source text: as §1

For assay [6], the system named is Amaranthus retroflexus. As to the kind of experiment: Pre-emergence herbicidal activity against AMARE. Conditions: Amaranthus retroflexus, 504 h, dosage 80 g/ha, scored visually after about 3 weeks vs untreated controls.
Source text: as §1

The subject of assay [7] is Polygonum convolvulus. As to the kind of experiment: Pre-emergence herbicidal activity against POLCO. Conditions: Fallopia convolvulus, 504 h, dosage 80 g/ha, scored visually after about 3 weeks vs untreated controls.
Source text: as §1

Assay [8] concerns Stellaria media. As to the kind of experiment: Pre-emergence herbicidal activity against STEME. Conditions: Stellaria media, 504 h, dosage 80 g/ha, scored visually after about 3 weeks vs untreated controls.
Source text: as §1

The subject of assay [9] is Viola tricolor. As to the kind of experiment: Pre-emergence herbicidal activity against VIOTR. Conditions: Viola tricolor, 504 h, dosage 80 g/ha, scored visually after about 3 weeks vs untreated controls.
Source text: as §1

Assay [10] deals with Veronica persica. As to the kind of experiment: Pre-emergence herbicidal activity against VERPE. Conditions: Veronica persica, 504 h, dosage 80 g/ha.
Source text: as §1

Assay [11] concerns Hordeum murinum. As to the kind of experiment: Pre-emergence herbicidal activity against HORMU. Conditions: Hordeum murinum, 504 h, dosage 80 g/ha.
Source text: as §1

For assay [12], the system named is Alopecurus myosuroides. As to the kind of experiment: Post-emergence herbicidal activity against ALOMY. Conditions: Alopecurus myosuroides, 504 h, dosage 320 g/ha, rated visually after about 3 weeks. As to the method:
(§2) [table] Seeds of monocotyledonous and dicotyledonous weeds and crop plants are placed in sandy loam in plastic or wood-fiber pots, covered with soil and cultivated in a greenhouse under controlled growth conditions. 2 to 3 weeks after sowing, the test plants are treated at the one-leaf stage. The compounds of the invention, formulated in the form of wettable powders (WP) or as emulsion concentrates (EC), are then sprayed onto the green parts of the plants as aqueous suspension or emulsion with addition of 0.5% additive at a water application rate of 600 l/ha (converted). After the test plants had been kept in the greenhouse under optimum growth conditions for about 3 weeks, the activity of the preparations is rated visually in comparison to untreated controls. For example, 100% activity=the plants have died, 0% activity=like control plants.

The subject of assay [13] is Avena fatua. As to the kind of experiment: Post-emergence herbicidal activity against AVEFA. The following applies: Avena fatua, 504 h, dosage 320 g/ha, rated visually after about 3 weeks. On the procedure:
as §2

The test system of assay [14] is Echinochloa crus-galli. As to the kind of experiment: Post-emergence herbicidal activity against ECHCG. Conditions: Echinochloa crus-galli, 504 h, dosage 320 g/ha, rated visually after about 3 weeks. As to the method:
as §2

For assay [15], the system named is Lolium rigidum. As to the kind of experiment: Post-emergence herbicidal activity against LOLRI. The following applies: Lolium rigidum, 504 h, dosage 320 g/ha, rated visually after about 3 weeks. On the procedure: as §2
Assay [16] deals with Setaria viridis. As to the kind of experiment: Post-emergence herbicidal activity against SETVI. The following applies: Setaria viridis, 504 h, dosage 320 g/ha, rated visually after about 3 weeks. As to the method: as §2
In another assay the test system is Abutilon theophrasti. As to the kind of experiment: Post-emergence herbicidal activity against ABUTH. Conditions: Abutilon theophrasti, 504 h, dosage 320 g/ha, rated visually after about 3 weeks. As to the method: as §2
The subject of another assay is Pharbitis purpurea. As to the kind of experiment: Post-emergence herbicidal activity against PHBPU. The following applies: Ipomoea purpurea, 504 h, dosage 320 g/ha, rated visually after about 3 weeks. On the procedure:
as §2

In assay [17] the test system is Polygonum convolvulus. As to the kind of experiment: Post-emergence herbicidal activity against POLCO. Conditions: Fallopia convolvulus, 504 h, dosage 320 g/ha, rated visually after about 3 weeks. As to the method:
as §2

Assay [18] has as its system Stellaria media. As to the kind of experiment: Post-emergence herbicidal activity against STEME. The following applies: Stellaria media, 504 h, dosage 320 g/ha, rated visually after about 3 weeks. As to the method: as §2
The subject of assay [19] is Viola tricolor. As to the kind of experiment: Post-emergence herbicidal activity against VIOTR. The following applies: Viola tricolor, 504 h, dosage 320 g/ha, rated visually after about 3 weeks. As to the method: as §2
For assay [20], the system named is Veronica persica. As to the kind of experiment: Post-emergence herbicidal activity against VERPE. The following applies: Veronica persica, 504 h, dosage 320 g/ha, rated visually after about 3 weeks. On the procedure:
as §2

Assay [21] deals with Hordeum murinum. As to the kind of experiment: Post-emergence herbicidal activity against HORMU. Conditions: Hordeum murinum, 504 h, dosage 320 g/ha, rated visually after about 3 weeks. On the procedure:
as §2

Assay [22] can be described thus: Pre-emergence herbicidal action against harmful plants (summary of the tables). The following applies: 504 h, application rate of 0.08 kg of active substance or less per hectare, read-out: herbicidal action, pre-emergence treatment (very good activity).
Source text: as §1, with “plants.” for “plants. [table]”
As shown by the results, compounds according to the invention such as, for example, the compounds No. I-02 and other compounds from the tables (I-05, I-10, I-11, I-12, I-13, I-14, I-15, I-16, I-17, I-18, I-19, I-20, I-21, I-22, I-23, I-24, I-25, I-26, I-27, I-28, I-29) have, when used for pre-emergence treatment, very good activity (80% to 100% herbicidal action) against harmful plants such as Abutilon theophrasti, Alopecurus myosuroides, Amaranthus retroflexus, Avena fatua, Cyperus esculentus, Echinochloa crus-galli, Hordeum murinum, Lolium rigidum, Pharbitis purpurea, Polygonum convolvulus, Setaria viridis, Stellaria media, Veronica persica and Viola tricolor at an application rate of 0.08 kg of active substance or less per hectare.

The test system of assay [23] is Amaranthus retroflexus. As to the kind of experiment: Post-emergence herbicidal activity against AMARE. The following applies: Amaranthus retroflexus, 504 h, dosage 320 g/ha, rated visually after about 3 weeks. As to the method:
as §2

Regarding `C=C[C@]1(C(=O)N[C@@H]2CO[C@H](C(=O)NN(C)C)C2)CC(c2cc(F)cc(F)c2)=NO1` (mixture of isomers) [Example I-15, (5S)-3-(3,5-difluorophenyl)-N-[cis-5-(dimethylaminocarbamoyl)tetrahydrofuran-3-yl]-5-vinyl-4H-isoxazole-5-carboxamide], the pest or weed control at 80 g/ha in the assay with Alopecurus myosuroides [1] stood at 100%; in the assay with Avena fatua [2], 90%; with Echinochloa crus-galli [3], 90%; with Lolium rigidum [4], 100%; in the assay with Setaria viridis [5], 100%; in the assay on Amaranthus retroflexus [6] it was 100%. Also, the pest or weed control at 80 g/ha is 100% with Polygonum convolvulus [7]; 100% in the assay with Stellaria media [8]; 100% with Viola tricolor [9]; 100% in the assay on Veronica persica [10]; 90% with Hordeum murinum [11]; 80 to 100% in assay [22]. The pest or weed control at 320 g/ha in the assay with Alopecurus myosuroides [12] amounted to 100%; in the assay with Avena fatua [13] it was 100%; in the assay with Echinochloa crus-galli [14], 90%; with Lolium rigidum [15], 90%; in the assay on Setaria viridis [16], 80%; in the assay on Abutilon theophrasti, 80%. The pest or weed control at 320 g/ha in the assay with Pharbitis purpurea turned out to be 80%; in the assay on Polygonum convolvulus [17], 90%; in the assay on Stellaria media [18], 90%; with Viola tricolor [19], 80%; in the assay with Veronica persica [20], 80%; with Hordeum murinum [21], 90%.

As to `C=C[C@]1(C(=O)N[C@H]2CO[C@@H](C(=O)NNC(=O)OC(C)(C)C)C2)CC(c2cc(F)cc(F)c2)=NO1` (mixture of isomers) [Example I-19, tert-butyl N-[[cis-4-[[(5S)-3-(3,5-difluorophenyl)-5-vinyl-4H-isoxazole-5-carbonyl]amino]tetrahydrofuran-2-carbonyl]amino]carbamate], the pest or weed control at 80 g/ha is 90% in the assay with Avena fatua [2]; 80% in the assay with Echinochloa crus-galli [3]; 100% in the assay on Lolium rigidum [4]; 90% in the assay on Setaria viridis [5]; 90% with Polygonum convolvulus [7]; 90% with Stellaria media [8]. Besides, the pest or weed control at 80 g/ha with Viola tricolor [9] was 80%; with Hordeum murinum [11], 100%; in assay [22] it was 80 to 100%. Besides, the pest or weed control at 320 g/ha in the assay on Alopecurus myosuroides [12], with Avena fatua [13], in the assay with Echinochloa crus-galli [14], with Lolium rigidum [15], in the assay with Setaria viridis [16] and in the assay on Abutilon theophrasti was 90% in each case. Further, the pest or weed control at 320 g/ha in the assay on Amaranthus retroflexus [23] turned out to be 90%; with Pharbitis purpurea, 90%; in the assay with Polygonum convolvulus [17], 90%; in the assay with Stellaria media [18], 90%; with Viola tricolor [19] it was 90%; in the assay with Veronica persica [20] it was 80%. Besides, the pest or weed control at 320 g/ha with Hordeum murinum [21] is 90%.

For the compound `CONC(=O)[C@@H]1C[C@H](NC(=O)C2(C)CC(c3cccc(F)c3)=NO2)CO1` (relative stereo) [Example I-10, 3-(3-fluorophenyl)-N-[cis-5-(methoxycarbamoyl)tetrahydrofuran-3-yl]-5-methyl-4H-isoxazole-5-carboxamide], the pest or weed control at 80 g/ha with Alopecurus myosuroides [1] stood at 100%; with Avena fatua [2], 80%; in the assay with Echinochloa crus-galli [3] it was 80%; with Lolium rigidum [4], 100%; in the assay with Setaria viridis [5] it was 90%; with Amaranthus retroflexus [6], 90%. For the same compound, the pest or weed control at 80 g/ha in the assay on Polygonum convolvulus [7] is 90%; in the assay on Stellaria media [8], 90%; with Hordeum murinum [11] it was 100%; in [22], 80 to 100%. Also, the pest or weed control at 320 g/ha in the assay on Alopecurus myosuroides [12] came to 100%; in the assay with Avena fatua [13], 90%; with Echinochloa crus-galli [14], 90%; in the assay on Lolium rigidum [15] it was 90%; in the assay with Setaria viridis [16], 90%; in the assay on Amaranthus retroflexus [23], 80%. Besides, the pest or weed control at 320 g/ha in the assay with Pharbitis purpurea worked out at 90%; in the assay on Stellaria media [18], 80%; with Veronica persica [20] it was 80%; in the assay on Hordeum murinum [21], 90%.

(Values after patent publication US11613522B2, “Herbicidally active 3-phenylisoxazoline-5-carboxamides of tetrahydro- and dihydrofurancarboxamides” (BAYER AKTIENGESELLSCHAFT, priority 2017, dated 2023).)
